Results: ChEMBL document CHEMBL6083240, “Design, synthesis and biological evaluation of arylpropylamine derivatives as potential multi-target antidepressants” (Bioorg Med Chem, 2024)
pIC50, pKi: −log10 of the molar value. The source made the active and inactive calls. The rule behind the calls is not given here.

How the values were obtained:
[1] = Acute toxicity in po dosed Sprague-Dawley rat assessed as mortality rate measured after 24 hrs; assay type: organism-based; details: in vivo
[2] = target: Sodium-dependent serotonin transporter (Rattus norvegicus, UniProt P31652); experiment: Displacement of [3H]-paroxetine from SERT in rat cerebral cortex incubated for 10 mins by liquid scintillation counting method; assay type: tissue-based
Sodium-dependent serotonin transporter, sequence (P31652 whole entry): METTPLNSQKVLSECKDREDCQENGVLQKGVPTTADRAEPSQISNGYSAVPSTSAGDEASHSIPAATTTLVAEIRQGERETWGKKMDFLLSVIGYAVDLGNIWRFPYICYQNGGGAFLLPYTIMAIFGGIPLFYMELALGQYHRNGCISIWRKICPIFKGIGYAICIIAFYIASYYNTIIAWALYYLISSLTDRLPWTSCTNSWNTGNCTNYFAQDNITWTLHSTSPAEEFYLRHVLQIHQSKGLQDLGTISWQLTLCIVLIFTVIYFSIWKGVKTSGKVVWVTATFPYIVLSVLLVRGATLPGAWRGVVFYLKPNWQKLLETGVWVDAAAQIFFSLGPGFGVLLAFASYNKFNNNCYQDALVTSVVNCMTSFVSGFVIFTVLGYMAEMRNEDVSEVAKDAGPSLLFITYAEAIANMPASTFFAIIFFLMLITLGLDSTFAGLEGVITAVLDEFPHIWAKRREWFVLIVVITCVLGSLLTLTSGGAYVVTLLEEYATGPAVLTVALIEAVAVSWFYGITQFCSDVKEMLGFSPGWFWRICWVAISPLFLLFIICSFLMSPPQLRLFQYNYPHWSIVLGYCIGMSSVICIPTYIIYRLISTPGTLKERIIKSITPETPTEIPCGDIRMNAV

Transporter = Transporter (Rattus norvegicus, UniProt Q63380); experiment: Displacement of [3H]-nisoxetine from NET in rat hippocampal membrane incubated for 8 hrs by liquid scintillation counting method; assay type: cell membranes, Hippocampus
Transporter, sequence (Q63380 whole entry): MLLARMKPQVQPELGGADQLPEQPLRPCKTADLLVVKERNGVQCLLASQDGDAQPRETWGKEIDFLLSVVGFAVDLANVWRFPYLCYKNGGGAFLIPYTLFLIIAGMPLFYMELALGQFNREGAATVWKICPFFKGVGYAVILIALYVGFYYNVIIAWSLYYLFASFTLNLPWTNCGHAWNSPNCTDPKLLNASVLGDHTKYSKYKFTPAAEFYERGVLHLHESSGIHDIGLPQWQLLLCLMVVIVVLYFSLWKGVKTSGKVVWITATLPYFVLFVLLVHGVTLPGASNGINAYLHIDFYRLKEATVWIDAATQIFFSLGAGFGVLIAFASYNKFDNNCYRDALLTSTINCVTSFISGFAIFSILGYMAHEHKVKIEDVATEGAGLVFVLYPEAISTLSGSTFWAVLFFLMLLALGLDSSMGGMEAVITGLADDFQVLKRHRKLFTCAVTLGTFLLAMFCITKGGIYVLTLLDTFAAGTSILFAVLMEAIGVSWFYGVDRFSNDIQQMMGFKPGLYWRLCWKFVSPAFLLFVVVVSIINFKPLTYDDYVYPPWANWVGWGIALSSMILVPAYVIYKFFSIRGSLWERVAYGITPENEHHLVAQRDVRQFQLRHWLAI

[3] = target: Voltage-gated inwardly rectifying potassium channel KCNH2 (Homo sapiens, UniProt Q12809); experiment: Inhibition of human ERG expressed in HEK293 cells by whole-cell patch clamp method; assay type: toxicity, cell-based
Voltage-gated inwardly rectifying potassium channel KCNH2, sequence (Q12809 whole entry): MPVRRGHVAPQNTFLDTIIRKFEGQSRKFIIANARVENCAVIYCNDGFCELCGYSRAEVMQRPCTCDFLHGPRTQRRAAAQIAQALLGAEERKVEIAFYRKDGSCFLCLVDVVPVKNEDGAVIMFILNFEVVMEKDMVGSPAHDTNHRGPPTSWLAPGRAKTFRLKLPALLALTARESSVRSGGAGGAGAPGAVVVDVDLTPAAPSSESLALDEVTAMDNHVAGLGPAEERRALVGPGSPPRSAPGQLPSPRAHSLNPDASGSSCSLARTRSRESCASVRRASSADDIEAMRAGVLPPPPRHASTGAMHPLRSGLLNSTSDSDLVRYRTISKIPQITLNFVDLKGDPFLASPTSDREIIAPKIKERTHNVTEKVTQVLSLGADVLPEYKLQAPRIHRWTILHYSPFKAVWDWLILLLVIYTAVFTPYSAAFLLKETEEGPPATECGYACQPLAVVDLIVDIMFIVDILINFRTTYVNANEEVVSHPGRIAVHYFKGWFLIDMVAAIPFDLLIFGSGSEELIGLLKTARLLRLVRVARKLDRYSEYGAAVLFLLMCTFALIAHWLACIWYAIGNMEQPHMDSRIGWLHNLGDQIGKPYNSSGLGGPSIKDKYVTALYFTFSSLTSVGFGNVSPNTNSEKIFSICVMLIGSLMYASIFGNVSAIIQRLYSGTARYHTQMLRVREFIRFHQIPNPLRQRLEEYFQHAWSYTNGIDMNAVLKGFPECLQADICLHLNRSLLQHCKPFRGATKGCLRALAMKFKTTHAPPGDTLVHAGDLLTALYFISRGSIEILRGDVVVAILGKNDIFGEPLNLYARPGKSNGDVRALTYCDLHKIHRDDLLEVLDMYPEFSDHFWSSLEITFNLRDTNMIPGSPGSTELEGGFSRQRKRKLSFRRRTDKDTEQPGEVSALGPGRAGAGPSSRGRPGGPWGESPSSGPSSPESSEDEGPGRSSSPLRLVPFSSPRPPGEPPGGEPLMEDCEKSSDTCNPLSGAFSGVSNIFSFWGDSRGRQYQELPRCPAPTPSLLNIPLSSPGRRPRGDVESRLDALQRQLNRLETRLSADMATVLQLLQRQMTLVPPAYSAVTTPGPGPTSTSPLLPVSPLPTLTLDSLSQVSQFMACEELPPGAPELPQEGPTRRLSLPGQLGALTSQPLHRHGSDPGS

[4] = target: Transporter (Rattus norvegicus) (UniProt Q63380); experiment: Agonist activity at rat cerebral cortex membrane NET at 10 uM incubated for 10 mins in presence of [3H]-NE relative to control; assay type: cell membranes
Transporter (Rattus norvegicus), sequence (Q63380 as listed by the source): as the sequence (Q63380 whole entry) above

[5] = target: T1, 5-hydroxytryptamine receptor 2A (Homo sapiens, UniProt P28223); experiment: Agonist activity at 5-HT2A in HEK293 cells at 10 uM incubated for 60 mins by FLIPR assay relative to control; assay type: functional, cell-based; details: filed as agonist
T1 sequence (P28223 whole entry): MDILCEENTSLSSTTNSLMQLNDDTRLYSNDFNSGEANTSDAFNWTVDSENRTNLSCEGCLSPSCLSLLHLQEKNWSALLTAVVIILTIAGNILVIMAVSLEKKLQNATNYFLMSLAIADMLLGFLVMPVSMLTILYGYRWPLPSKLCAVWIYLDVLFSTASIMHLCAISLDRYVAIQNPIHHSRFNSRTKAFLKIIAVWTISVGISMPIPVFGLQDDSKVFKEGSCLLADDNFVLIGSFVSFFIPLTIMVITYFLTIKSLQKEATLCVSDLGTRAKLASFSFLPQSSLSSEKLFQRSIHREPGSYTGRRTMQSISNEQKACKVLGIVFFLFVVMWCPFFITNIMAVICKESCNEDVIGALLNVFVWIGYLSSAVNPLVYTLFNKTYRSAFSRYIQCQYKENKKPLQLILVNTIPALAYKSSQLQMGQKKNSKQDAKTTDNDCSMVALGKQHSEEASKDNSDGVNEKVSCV

[6] = target: T1, 5-hydroxytryptamine receptor 2A; experiment: Antagonist activity at 5-HT2A in HEK293 cells incubated for 60 mins by FLIPR assay; assay type: cell-based
[7] = target: T2, 5-hydroxytryptamine receptor 2C (Homo sapiens) (UniProt P28335); experiment: Agonist activity at 5-HT2C in HEK293 cells at 10 uM incubated for 60 mins by FLIPR assay relative to control; assay type: functional, cell-based; details: filed as agonist
T2 sequence (whole entry): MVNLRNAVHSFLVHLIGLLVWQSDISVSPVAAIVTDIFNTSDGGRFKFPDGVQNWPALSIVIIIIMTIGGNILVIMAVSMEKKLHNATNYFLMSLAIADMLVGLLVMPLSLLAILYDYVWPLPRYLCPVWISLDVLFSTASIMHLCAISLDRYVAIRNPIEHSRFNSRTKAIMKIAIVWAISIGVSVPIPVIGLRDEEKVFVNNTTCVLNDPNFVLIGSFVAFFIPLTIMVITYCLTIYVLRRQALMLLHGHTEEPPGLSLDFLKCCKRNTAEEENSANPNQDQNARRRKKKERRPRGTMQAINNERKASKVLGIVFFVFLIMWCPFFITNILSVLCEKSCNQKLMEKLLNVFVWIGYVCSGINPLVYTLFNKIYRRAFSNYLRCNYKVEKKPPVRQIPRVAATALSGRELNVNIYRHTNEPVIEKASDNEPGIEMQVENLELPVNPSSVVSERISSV

[8] = target: T2, 5-hydroxytryptamine receptor 2C (Homo sapiens); experiment: Antagonist activity at 5-HT2C in HEK293 cells at 10 uM incubated for 60 mins by FLIPR assay relative to control; assay type: cell-based; parameters: scale not given: the % may be the effect or the level left; details: filed as antagonist
[9] = target: 5-hydroxytryptamine receptor 2C (Homo sapiens, UniProt P28335); experiment: Antagonist activity at 5-HT2C in HEK293 cells incubated for 60 mins by FLIPR assay; assay type: cell-based
Mus musculus [10] = experiment: Antidepressant activity in IG dosed Kunming mouse assessed as decrease in immobility time by measuring minimal effective dose by forced swimming test; assay type: functional
Mus musculus [11] = experiment: Antidepressant activity in IG dosed Kunming mouse assessed as decrease in immobility time by measuring minimal effective dose by tail suspension test; assay type: functional
Mus musculus [12] = experiment: Antidepressant activity in Kunming mouse assessed as effect on spontaneous locomotor activity by measuring total travel distance at 7.5 to 60 mg/kg, po administered for 60 mins and measured for 15 mins; assay type: functional, organism-based; details: dose lower […], dose upper 60.0 mg/kg
Mus musculus [13] = experiment: Antidepressant activity in Kunming mouse chronic unpredictable mild stress model assessed as increase in sucrose preference at 0.5 to 6 mg/kg, IG measured after 1 week; assay type: functional, organism-based; details: dose 0.5-6 mg/kg, time 1.0 weeks
Mus musculus [14] = experiment: Antidepressant activity in Kunming mouse chronic unpredictable mild stress model assessed as increase in sucrose preference at 4 mg/kg, IG measured after 2 weeks; assay type: functional, organism-based
[15] = (§1) In vivo inhibition of 5-HT2A in po dosed DOI-induced Kunming mouse assessed as reduction in head twitch response pretreated for 60 mins followed by DOI induction and measured for 20 mins; assay type: functional; details: 1.333 h, time 80 min
Mus musculus [16] = experiment: as §1; assay type: functional; details: time 80.0 min
D(1A) dopamine receptor = D(1A) dopamine receptor (Homo sapiens, UniProt P21728); experiment: Binding affinity to D1 receptor (unknown origin)
[17] = target: Alpha-2A adrenergic receptor (Homo sapiens, UniProt P08913); experiment: Binding affinity to alpha-2 adrenergic receptor (unknown origin)
Alpha-2A adrenergic receptor, sequence (P08913 whole entry): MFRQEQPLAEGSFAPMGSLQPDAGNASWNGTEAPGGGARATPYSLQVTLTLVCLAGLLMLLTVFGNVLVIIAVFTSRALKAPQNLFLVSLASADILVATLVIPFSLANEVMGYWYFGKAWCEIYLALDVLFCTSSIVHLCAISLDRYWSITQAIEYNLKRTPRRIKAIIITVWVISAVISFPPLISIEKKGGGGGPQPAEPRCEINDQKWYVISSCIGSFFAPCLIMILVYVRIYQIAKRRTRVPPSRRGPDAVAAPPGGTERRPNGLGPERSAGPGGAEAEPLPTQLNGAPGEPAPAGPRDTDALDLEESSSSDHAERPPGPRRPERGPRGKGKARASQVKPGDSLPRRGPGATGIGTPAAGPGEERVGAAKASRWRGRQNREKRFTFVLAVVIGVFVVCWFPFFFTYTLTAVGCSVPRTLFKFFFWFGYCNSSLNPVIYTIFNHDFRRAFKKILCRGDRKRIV

Histamine H3 receptor = Histamine H3 receptor (Homo sapiens, UniProt Q9Y5N1); experiment: Binding affinity to H3 receptor (unknown origin)
[18] = target: Muscarinic acetylcholine receptor M2 (Homo sapiens, UniProt P08172); experiment: Binding affinity to M2 receptor (unknown origin)
[19] = target: Muscarinic acetylcholine receptor M3 (Homo sapiens, UniProt P20309); experiment: Binding affinity to M3 receptor (unknown origin)
Muscarinic acetylcholine receptor M3, sequence (P20309 whole entry): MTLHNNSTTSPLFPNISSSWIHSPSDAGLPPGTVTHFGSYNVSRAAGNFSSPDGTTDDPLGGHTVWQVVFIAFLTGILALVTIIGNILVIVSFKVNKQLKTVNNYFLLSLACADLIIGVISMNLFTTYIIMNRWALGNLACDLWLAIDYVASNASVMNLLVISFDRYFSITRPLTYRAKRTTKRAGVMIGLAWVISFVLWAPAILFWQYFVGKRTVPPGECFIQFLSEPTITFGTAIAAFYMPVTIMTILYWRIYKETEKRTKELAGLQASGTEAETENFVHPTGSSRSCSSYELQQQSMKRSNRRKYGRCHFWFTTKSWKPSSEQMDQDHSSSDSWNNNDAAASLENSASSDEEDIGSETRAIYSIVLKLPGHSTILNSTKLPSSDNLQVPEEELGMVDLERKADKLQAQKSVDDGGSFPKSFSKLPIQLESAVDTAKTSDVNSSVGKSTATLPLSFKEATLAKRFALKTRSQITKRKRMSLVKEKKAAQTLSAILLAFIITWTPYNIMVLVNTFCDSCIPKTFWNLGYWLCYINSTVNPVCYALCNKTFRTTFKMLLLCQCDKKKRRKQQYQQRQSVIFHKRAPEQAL

[20] = target: Muscarinic acetylcholine receptor M4 (Homo sapiens, UniProt P08173); experiment: Binding affinity to M4 receptor (unknown origin)
Muscarinic acetylcholine receptor M4, sequence (P08173 whole entry): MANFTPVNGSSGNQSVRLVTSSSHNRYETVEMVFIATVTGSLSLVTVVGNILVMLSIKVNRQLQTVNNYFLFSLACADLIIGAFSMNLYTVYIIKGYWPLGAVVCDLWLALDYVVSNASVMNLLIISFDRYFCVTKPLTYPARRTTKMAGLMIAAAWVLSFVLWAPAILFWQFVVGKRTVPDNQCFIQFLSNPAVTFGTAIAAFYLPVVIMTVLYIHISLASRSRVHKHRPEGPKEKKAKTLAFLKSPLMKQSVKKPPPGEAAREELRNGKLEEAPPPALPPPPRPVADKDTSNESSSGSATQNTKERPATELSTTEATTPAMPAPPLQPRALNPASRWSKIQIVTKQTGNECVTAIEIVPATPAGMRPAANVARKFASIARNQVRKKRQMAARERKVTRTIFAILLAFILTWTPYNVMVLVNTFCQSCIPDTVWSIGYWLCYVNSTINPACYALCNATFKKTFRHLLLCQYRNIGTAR

[21] = target: Muscarinic acetylcholine receptor M5 (Homo sapiens, UniProt P08912); experiment: Binding affinity to M5 receptor (unknown origin)
Muscarinic acetylcholine receptor M5, sequence (P08912 whole entry): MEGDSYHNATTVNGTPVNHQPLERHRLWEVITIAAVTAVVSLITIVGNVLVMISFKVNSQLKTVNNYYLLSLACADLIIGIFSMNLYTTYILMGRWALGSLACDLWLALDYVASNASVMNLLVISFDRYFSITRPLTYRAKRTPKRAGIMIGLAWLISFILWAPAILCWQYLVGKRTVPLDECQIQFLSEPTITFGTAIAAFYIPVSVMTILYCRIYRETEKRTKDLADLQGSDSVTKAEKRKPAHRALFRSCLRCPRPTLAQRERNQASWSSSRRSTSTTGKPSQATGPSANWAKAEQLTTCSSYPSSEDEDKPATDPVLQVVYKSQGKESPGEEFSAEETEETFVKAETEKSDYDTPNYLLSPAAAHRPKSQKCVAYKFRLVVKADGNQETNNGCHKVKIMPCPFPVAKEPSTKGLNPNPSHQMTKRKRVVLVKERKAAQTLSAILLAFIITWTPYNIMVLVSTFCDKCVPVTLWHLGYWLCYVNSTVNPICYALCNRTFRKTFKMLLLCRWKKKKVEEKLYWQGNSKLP

[22] = target: 5-hydroxytryptamine receptor 7 (Homo sapiens, UniProt P34969); experiment: Binding affinity to 5-HT7 receptor (unknown origin)
[23] = target: Sigma non-opioid intracellular receptor 1 (Homo sapiens, UniProt Q99720); experiment: Binding affinity to sigma 1 receptor (unknown origin)
[24] = target: Sigma intracellular receptor 2 (Homo sapiens, UniProt Q5BJF2); experiment: Binding affinity to sigma 2 receptor (unknown origin)
[25] = Cmax in CD1 mouse at 2 mg/kg, iv measured upto 10 hrs by LC-MS analysis; assay type: ADME, organism-based; details: in vivo
[26] = Half-life in CD1 mouse at 2 mg/kg, iv measured upto 10 hrs by LC-MS analysis; assay type: ADME, organism-based; details: in vivo
[27] = Half-life in CD1 mouse at 15 mg/kg, po measured upto 24 hrs by LC-MS analysis; assay type: ADME, organism-based; details: in vivo
[28] = AUC(0 to t) in CD1 mouse at 2 mg/kg, iv measured upto 10 hrs by LC-MS analysis; assay type: ADME, organism-based; details: in vivo
[29] = AUC(0 to t) in CD1 mouse at 15 mg/kg, po measured upto 24 hrs by LC-MS analysis; assay type: ADME, organism-based; details: in vivo
[30] = MRTlast in CD1 mouse at 2 mg/kg, iv measured upto 10 hrs by LC-MS analysis; assay type: ADME, organism-based; details: in vivo
[31] = MRTlast in CD1 mouse at 15 mg/kg, po measured upto 24 hrs by LC-MS analysis; assay type: ADME, organism-based; details: in vivo

In the case of CN(C)CC[C@@H](Oc1cccc2c1OCO2)c1ccc(F)cc1.O=C(O)C(=O)O, the LD50 at 24 h [1] was 560 mg/kg, the pKi [2] was 8.24 and the pKi (Transporter) was 8.64. For the same compound, the pIC50 [3] was 5.91, the Activity [4] was 5.6% and the Activity [5] was 103%. It also gave a pIC50 [6] of 7.44, an Activity [7] of 18.1% and an Activity [8] of 99.1%. The pIC50 [9] was 7.06, the Activity (Mus musculus [10]) was “Dose-dependent-effect” and the minimal effective dose (Mus musculus [10]; po, read-out: MED) was 6.4 mg/kg. The Activity (Mus musculus [11]) was “Dose-dependent-effect”, the minimal effective dose (Mus musculus [11]; po, read-out: MED) was 6.4 mg/kg and the Activity (Mus musculus [12]) was “inactive”. For the same compound, the Activity (Mus musculus [13]) was “inactive”, the Activity (Mus musculus [14]) was “Active” and the ED50 [15] was 1.07 mg/kg. For the same compound, the Activity (Mus musculus [16]) was “Dose-dependent-effect”, the pKi (D(1A) dopamine receptor) was under 6.00 and the pKi [17] was under 6.00. The pKi (Histamine H3 receptor) was under 6.00, the pKi [18] was under 6.00 and the pKi [19] was under 6.00. It also gave a pKi [20] of under 6.00, a pKi [21] of under 6.00 and a pKi [22] of under 6.00. It also gave a pKi [23] of under 6.00, a pKi [24] of under 6.00 and a Cmax [25] of 420 ng/mL. It also gave a half-life [26] of 1.2 h, a half-life [27] of 1.8 h and an AUC(0-t) at 10 h [28] of 304 ng·h/mL. For the same compound, the AUC(0-t) at 24 h [29] was 462 ng·h/mL, the MRT last at 10 h [30] was 1.1 h and the MRT last at 24 h [31] was 3.1 h.
